Data as given in article PMC11496081, “The diversity of AMPA receptor inhibition mechanisms among amidine-containing compounds” (Frontiers in Pharmacology, 2024).
Several values for one entry are separate records, joined by “and”; a condition that tells them apart may be missing. Equal entries are not always repeated. Where two headings read alike, the source gives them in different places.

How the values were obtained:
[1] = system: calcium-permeable AMPA receptors (CP-AMPARs); assay: Whole-cell patch clamp, block of kainate-induced currents in striatal giant interneurons; type: cell-based, rat
Description: (§1) The rats were anesthetised with sevoflurane and then decapitated. […] All experiments were performed at room temperature.
(§2) Pentamidine isethionate (P-155) was from Alomone laboratories.
(§3) The voltage dependence of compounds action was analysed by Woodhull model for permeable blockers ([Woodhull, 1973]; [Tikhonova et al., 2008]). According to this model, the voltage dependence of steady-state blockade is given by Equation 1: BV=100%−100%/1+C/KbexpF/RT zδb V+Kp exp−F/RT zδp V (1) where V is voltage, B is level of block (%), C is concentration of the drug, z is molecular charge, and R, F and T have their standard meanings. Kb is the affinity of a drug for the channel. The δb value reflects the fraction of membrane electric field that the charged blocking molecule crosses on its pathway between the external media and the binding site in the channel (where the total field has a value of 1). Parameters Kp and δp describe permeation through the channel. […] For this reason, we used Equation 2, which takes into account the possibility of inhibitor to bind also at superficial site ([Nikolaev and Tikhonov, 2023]), assuming that the binding to the deep and superficial site is independent. BV=100%−100%/1+C/KbexpF/RT zδb V+Kp exp−F/RT zδp V+C/Kvin+C^2/Kvin KbexpF/RT zδb V+Kp exp−F/RT zδp V (2)
(§4) All experimental data are presented as the mean ± SD estimated from at least four experiments (cells). Significance of the effects was tested with t-tests. Differences were considered significant at p < 0.05. Concentration dependencies were approximated by Hill equation. Voltage dependencies were approximated by Equation 1 or 2. […] Then all data was pooled together and the parameters of voltage dependence were estimated using the fitting of all measurements. For each holding potential ≥4 cells were used. Voltage dependence parameters (binding constants and δb values) are shown as the result of the fitting ± approximation errors.

[2] = target: NMDA receptors; set-up: method as in Zhigulin and Barygin, 2023; settings: ref Zhigulin and Barygin, 2023, cited from earlier work; for IC50: read-out: IC50 at -80mV, μM NMDAR; for δb NMDAR / Kb: channel site; for Kb: read-out: Kb, μM NMDAR; for Kd: superficial site, read-out: Kvin, μM NMDAR
[3] = target: T1, calcium-impermeable AMPA receptors (CI-AMPARs) (Rattus norvegicus, UniProt P19490+P19491, Q607R); assay: Whole-cell patch clamp, kainate-induced currents in hippocampal CA1 pyramidal neurons; type: cell-based; settings: for δb CI-AMPAR: fixed δb values obtained from the CP-AMPARs data; for inhibition at 200 µM: furamidine 50 µM
Description: as §1, §2, §3, §4

[4] = system: calcium-permeable AMPA receptors (CP-AMPARs); set-up: method as in Zhigulin et al., 2022; settings: −80 mV, ref Zhigulin et al., 2022, cited from earlier work
[5] = target: T1, calcium-impermeable AMPA receptors (CI-AMPARs); set-up: method as in Zhigulin et al., 2022; settings: 100 µM compound, −80 mV; ref Zhigulin et al., 2022; cited from earlier work
[6] = target: T1, calcium-impermeable AMPA receptors (CI-AMPARs); assay: Whole-cell patch clamp, glutamate-induced currents in hippocampal CA1 pyramidal neurons
Description: The rats were anesthetised with sevoflurane and then decapitated. The brains were brought out quickly and cooled to 2°C–4°C. Transverse striatal or hippocampal slices were cut using a vibratome (Campden Instruments) and stored in a solution containing (in mM): NaCl 124, KCl 5, CaCl2 1.3, MgCl2 2.0, NaHCO3 26, NaH2PO4 1.24, D-glucose 10, aerated with carbogen (95% O2, 5% CO2). All experiments were performed at room temperature.
Vibrodissociation method ([Vorobjev, 1991]; [Jun et al., 2011]) was used to free CA1 pyramidal neurons or giant striatal interneurons from slices. This method allows isolating cells without enzymatic treatment and keep them in more native state. […] The antagonism of CI-AMPARs was studied on pyramidal neurons from the CA1 area of the hippocampus. These cells were isolated from the stratum pyramidale and distinguished from non-pyramidal cells on the basis of pyramidal-like somata and preserved apical dendrites.
To record membrane currents in response to applications of kainate or glutamate the whole-cell configuration of patch clamp technique was used. Series resistance (<20 MΩ) was compensated by 70%–80% and monitored during experiments. […]
AMPA receptors were activated with 100 µM kainate or 1 mM glutamate unless otherwise stated. […] The effects of compounds on steady-state currents for different drug concentrations were measured at −80 mV holding voltages. […]

[7] = 100 µM compound, kainate-induced current, −80 mV
[8] = kainate-induced current, −80 mV; read-out: IC50, µM CP-AMPARs
[9] = voltage dependence fitted by eq. 1; read-out: Kb, µM CP-AMPARs (binding to channel site)
[10] = voltage dependence −140 to +40 mV fitted by eq. 1
[11] = −80 mV; IEM-1925 1 µM, pentamidine 50 μM

T1 sequence (P19491 22-883 Q607R): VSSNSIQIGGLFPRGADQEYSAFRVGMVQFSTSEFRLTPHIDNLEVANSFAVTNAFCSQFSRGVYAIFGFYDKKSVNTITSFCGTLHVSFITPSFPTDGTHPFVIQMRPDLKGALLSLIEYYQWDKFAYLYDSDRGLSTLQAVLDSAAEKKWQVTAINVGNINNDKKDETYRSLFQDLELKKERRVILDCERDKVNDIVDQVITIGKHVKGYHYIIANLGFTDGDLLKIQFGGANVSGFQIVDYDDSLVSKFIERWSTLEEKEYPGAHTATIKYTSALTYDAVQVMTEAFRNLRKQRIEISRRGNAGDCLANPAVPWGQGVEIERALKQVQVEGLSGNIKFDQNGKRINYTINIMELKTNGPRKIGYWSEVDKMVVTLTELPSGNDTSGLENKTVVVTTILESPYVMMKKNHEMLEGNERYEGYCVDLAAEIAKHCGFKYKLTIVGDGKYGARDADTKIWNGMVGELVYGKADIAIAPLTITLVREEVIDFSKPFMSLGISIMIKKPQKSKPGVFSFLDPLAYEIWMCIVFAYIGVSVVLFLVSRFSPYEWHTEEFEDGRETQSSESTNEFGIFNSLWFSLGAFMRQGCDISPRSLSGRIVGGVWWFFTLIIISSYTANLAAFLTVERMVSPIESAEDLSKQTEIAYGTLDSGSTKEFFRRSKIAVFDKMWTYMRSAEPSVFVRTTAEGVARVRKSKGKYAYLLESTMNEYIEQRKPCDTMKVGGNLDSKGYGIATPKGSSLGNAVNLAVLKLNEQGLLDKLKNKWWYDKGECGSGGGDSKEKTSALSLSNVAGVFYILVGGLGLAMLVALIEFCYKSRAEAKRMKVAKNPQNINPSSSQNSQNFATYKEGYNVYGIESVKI
T1 sequence (P19490 19-907): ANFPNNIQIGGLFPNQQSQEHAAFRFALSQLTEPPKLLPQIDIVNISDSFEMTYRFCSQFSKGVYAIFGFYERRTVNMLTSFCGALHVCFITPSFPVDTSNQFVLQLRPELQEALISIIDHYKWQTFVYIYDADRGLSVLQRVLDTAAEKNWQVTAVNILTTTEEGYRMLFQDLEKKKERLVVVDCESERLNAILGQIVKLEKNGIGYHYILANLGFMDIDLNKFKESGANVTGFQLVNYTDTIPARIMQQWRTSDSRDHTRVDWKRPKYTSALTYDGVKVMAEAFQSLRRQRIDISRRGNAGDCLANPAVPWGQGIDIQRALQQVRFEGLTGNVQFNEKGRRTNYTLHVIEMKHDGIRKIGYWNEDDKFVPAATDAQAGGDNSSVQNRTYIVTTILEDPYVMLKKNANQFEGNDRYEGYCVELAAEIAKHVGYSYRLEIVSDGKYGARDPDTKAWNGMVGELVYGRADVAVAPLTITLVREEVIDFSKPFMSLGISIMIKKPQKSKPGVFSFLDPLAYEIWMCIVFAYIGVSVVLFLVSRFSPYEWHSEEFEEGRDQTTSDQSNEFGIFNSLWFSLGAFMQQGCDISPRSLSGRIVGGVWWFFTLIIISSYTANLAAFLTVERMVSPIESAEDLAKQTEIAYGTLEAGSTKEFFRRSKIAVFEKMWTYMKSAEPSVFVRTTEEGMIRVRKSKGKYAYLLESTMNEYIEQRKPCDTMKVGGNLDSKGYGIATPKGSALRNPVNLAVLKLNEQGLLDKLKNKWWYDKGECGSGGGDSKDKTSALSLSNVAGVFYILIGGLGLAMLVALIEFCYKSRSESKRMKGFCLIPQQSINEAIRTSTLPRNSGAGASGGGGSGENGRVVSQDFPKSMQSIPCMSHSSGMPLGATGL

CN(C)C(=O)COC(=O)Cc1ccc(OC(=O)c2ccc(NC(=N)N)cc2)cc1 [Camostat]
Block at 100 µM, % CP-AMPARs [1, 7]: 16 ± 4 (n=4) % | Block at 100 µM, % CP-AMPARs ([1]; 100 µM compound, kainate-induced current, −80 mV; listed as camostat): < 50% | IC50 [1, 8]: > 100 µM | IC50 at -80mV, μM NMDAR ([2]; −80 mV): ineffective | IC50 ([2]; −80 mV): > 100 µM

N=C(N)c1ccc(-c2cc3ccc(C(=N)N)cc3[nH]2)cc1 [DAPI, 4′,6-diamidino-2-phenylindole]
Block at 100 µM, % CP-AMPARs [1, 7]: 83 ± 4 (n=4) % | IC50 [1, 8]: 27 ± 1 µM | Kb [1, 9]: 5.4 ± 1.2 µM | Block at 100 µM, % CI-AMPARs [3, 7]: 64 ± 5 (n=6) % | Kb ([3]; fitted by eq. 2 with fixed δb values from CP-AMPARs data, read-out: Kb, µM CI-AMPARs (binding to channel site)): 24 ± 7 µM | Kd ([3]; fitted by eq. 2 with fixed δb values from CP-AMPARs data, read-out: Kvin, µM CI-AMPARs (binding to superficial site)): 62 ± 6 µM | δb CI-AMPAR [3]: 0.65 | IC50 ([3]; kainate-induced current, −80 mV): 59 ± 9 µM | δb NMDAR [2]: 0.55 | Kb [2]: 5000 µM | Kd [2]: 3.2 µM | IC50 ([2]; −80 mV): 3.1 µM

N=C(N)c1ccc(/N=N/Nc2ccc(C(=N)N)cc2)cc1 [Diminazene]
Kb [1, 9]: 47 ± 5 µM | δb CP-AMPARs (fraction of membrane electric field to channel site) [1, 10]: 0.64 ± 0.05 and 0.65 | δb CP-AMPARs (fraction of membrane electric field to channel site) ([1]; voltage dependence −140 to +40 mV fitted by eq. 1; listed as diminazene): around 0.7 | δb CI-AMPAR [3]: 0.65 | Block at 100 µM, % CP-AMPARs ([4]; 100 µM compound): 69 ± 4 % | IC50 [4]: 60 ± 11 µM | Block at 100 µM, % CI-AMPARs [5]: 31 ± 7 % | δb NMDAR [2]: 0.55 | Kb [2]: 1500 µM | Kd [2]: 14 µM | IC50 ([2]; −80 mV): 13 µM

N=C(N)c1ccc(-c2ccc(-c3ccc(C(=N)N)cc3)o2)cc1 [Furamidine]
Block at 100 µM, % CP-AMPARs [1, 7]: 79 ± 7 (n=4) % | Block at 100 µM, % CP-AMPARs ([1]; 100 µM compound, kainate-induced current, −80 mV; listed as furamidine): 75–80% | IC50 ([1]; read-out: IC50, µM CP-AMPARs; kainate-induced current, −80 mV): 38 µM | Kb ([1]; read-out: Kb, µM CP-AMPARs (binding to channel site); voltage dependence fitted by eq. 1): 15 µM | δb CP-AMPARs (fraction of membrane electric field to channel site) [1, 10]: 0.72 ± 0.15 and 0.7 | δb CP-AMPARs (fraction of membrane electric field to channel site) ([1]; voltage dependence −140 to +40 mV fitted by eq. 1; listed as furamidine): around 0.7 | δb CI-AMPAR [3]: 0.7 | δb NMDAR [2]: 0.55 | Kb [2]: 22 µM | Kd [2]: 3.3 µM | IC50 ([2]; −80 mV): 0.64 µM

CCOC(=O)c1ccc(OC(=O)CCCCCNC(=N)N)cc1 [Gabexate]
Block at 100 µM, % CP-AMPARs [1, 7]: 30 ± 4 (n=4) % | IC50 [1, 8]: > 100 µM | δb NMDAR [2]: 0.55 | Kb [2]: 800 µM | Kd [2]: 25 µM | IC50 ([2]; −80 mV): 16 µM

N=C(N)c1ccc2cc(OC(=O)c3ccc(N=C(N)N)cc3)ccc2c1 [Nafamostat]
Block at 100 µM, % CP-AMPARs [1, 7]: 60 ± 11 (n=4) % | IC50 ([1]; kainate-induced current, −80 mV; listed as nafamostat; read-out: IC50, µM CP-AMPARs): ~55 µM | IC50 [1, 8]: 55 ± 24 µM | Kb ([1]; voltage dependence fitted by eq. 1; listed as nafamostat; read-out: Kb, µM CP-AMPARs (binding to channel site)): 5 to 10 µM | Kb [1, 9]: 9 ± 4 µM | δb CP-AMPARs (fraction of membrane electric field to channel site) [1, 10]: 0.76 ± 0.16 and 0.75 | δb CP-AMPARs (fraction of membrane electric field to channel site) ([1]; voltage dependence −140 to +40 mV fitted by eq. 1; listed as nafamostat): around 0.7 | δb CI-AMPAR [3]: 0.75 | δb NMDAR [2]: 0.55 | Kb [2]: 11 µM | Kd [2]: 3 µM | IC50 ([2]; −80 mV): 0.2 µM

N=C(N)c1ccc(OCCCCCOc2ccc(C(=N)N)cc2)cc1 [Pentamidine]
washout kinetics τ of perampanel and pentamidine mixture ([1]; 100 nM perampanel + 500 µM pentamidine, in presence of kainate): 620 ± 470 ms | Block at 100 µM, % CP-AMPARs [1, 7]: 70 ± 4 (n=4) % | block of CP-AMPARs at +40 mV ([1]; 100 μM, +40 mV, representative example): 27% | block of CP-AMPARs at −40 mV ([1]; 100 μM, −40 mV, representative example): 78% | rectification index (current ratio between +40 mV and −40 mV) ([1]; 10 mM in pipette solution, kainate-induced responses): 0.10 ± 0.04 | washout kinetics τ, CP-AMPARs ([1]; in presence of kainate): 120 ± 60 ms | IC50 [1, 8]: 43 ± 9 µM | Kb [1, 9]: 36 ± 4 µM | δb CP-AMPARs (fraction of membrane electric field to channel site) [1, 10]: 0.49 ± 0.04 and 0.5 | δb CI-AMPAR [3]: 0.5 | inhibition at 100 µM ([3]; read-out: Block at 100 µM, % CI-AMPARs, 100 µM compound, kainate-induced current, −80 mV): 39 ± 5% | inhibition at 200 µM ([3]; read-out: block of CI-AMPARs with 50 µM kainate, −80 mV, pentamidine 200 µM, no cyclothiazide): 38% | inhibition at 200 µM ([3]; read-out: block of CI-AMPARs with 500 µM kainate, −80 mV, pentamidine 200 μM): 61% | δb NMDAR [2]: 0.7 | Kb [2]: 27 µM | Kd [2]: 10 µM | IC50 ([2]; −80 mV): 0.41 µM | remaining activity at 100 µM ([6]; read-out: Idrug/Icontrol, glutamate-induced steady-state current): 140 ± 10%

N=C(N)c1ccc2cc(OC(=O)c3ccc(NC4=NCCN4)cc3)ccc2c1 [Sepimostat]
Block at 100 µM, % CP-AMPARs [1, 7]: 66 ± 5 (n=4) % | inhibition remaining in trapping protocol after 10 s without kainate ([1]; 300 µM sepimostat): 21% ± 2% | recovery (washout) kinetics τ, CP-AMPARs ([1]; in presence of kainate): 1.5 ± 0.3 s | IC50 ([1]; kainate-induced current, −80 mV; listed as sepimostat; read-out: IC50, µM CP-AMPARs): ~55 µM | IC50 [1, 8]: 56 ± 6 µM | Kb [1, 9]: 71 ± 9 µM | δb CP-AMPARs (fraction of membrane electric field to channel site) [1, 10]: 0.88 ± 0.12 and 0.9 | δb CP-AMPARs (fraction of membrane electric field to channel site) ([1]; voltage dependence −140 to +40 mV fitted by eq. 1; listed as sepimostat): ~0.9 | inhibition at 100 µM ([3]; 100 µM compound, kainate-induced current, −80 mV, read-out: Block at 100 µM, % CI-AMPARs): 37 ± 3% | δb CI-AMPAR [3]: 0.9 | δb NMDAR [2]: 0.55 | Kb [2]: 102 µM | Kd [2]: 7 µM | IC50 ([2]; −80 mV): 3.5 µM

NS(=O)(=O)c1cc2c(cc1Cl)NC(C1CC3C=CC1C3)NS2(=O)=O (stereo not drawn) [cyclothiazide]
fold induction at 100 µM ([3]; read-out: increase in current at 50 µM kainate): 8 ± 2 | fold induction at 100 µM ([3]; read-out: potentiation of responses evoked by 100 µM kainate): 6 ± 3 | fold induction at 100 µM ([6]; read-out: enhancement of glutamate-induced currents): 12 ± 3

N#Cc1ccccc1-c1cc(-c2ccccn2)cn(-c2ccccc2)c1=O [perampanel]
inhibition of CP-AMPARs in presence of kainate ([1]; 100 nM perampanel): 50%–70% | inhibition at 0.1 µM ([3]; read-out: inhibition of kainate-induced CI-AMPAR currents in absence of cyclothiazide, 100 nM perampanel): 74%

IEM-1925
inhibition of CP-AMPARs with 50 µM kainate [1, 11]: 40% ± 3% | inhibition of CP-AMPARs with 500 µM kainate [1, 11]: 48% ± 5%
